From patent US20230017045A1, “PYRIDINE AND PYRIMIDINE CARBOXYLATE HERBICIDES AND METHODS OF USE THEREOF” (Dow AgroSciences LLC, priority 2017, published 2023)
Like-named read-outs stand apart in the source and are kept apart here.

System: test plant species
Assay: Post-emergent herbicidal activity test (greenhouse, foliar spray, visual growth reduction)
Format: in vivo
Conditions: post-emergence, 336 h, 140 g ai/ha
How it was run: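 Scoring used a 0 to 100 percent visual scale of growth reduction against solvent-treated controls, read 14 d after spraying. Applications went onto plants at first or second true leaf stage, 187 L/ha, with crop oil concentrate and X-77 surfactant in the carrier. Post-treatment watering was by subirrigation to avoid wash-off.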

[1] = ECHCG: barnyardgrass (Echinochloa crus-galli), 14 days after application, read-out: Visual Growth Reduction (%) 14 Days After Application, ECHCG
[2] = IPOHE: ivy-leaf morning glory (Ipomoea hederacea), 14 days after application, read-out: Visual Growth Reduction (%) 14 Days After Application, IPOHE
[3] = KCHSC: kochia (Bassia scoparia), 14 days after application, read-out: Visual Growth Reduction (%) 14 Days After Application, KCHSC
[4] = ORYSA: rice (Oryza sativa), 14 days after application, read-out: Visual Growth Reduction (%) 14 Days After Application, ORYSA
[5] = SETFA: giant foxtail (Setaria faberi), 14 days after application, read-out: Visual Growth Reduction (%) 14 Days After Application, SETFA
[6] = SORVU: grain sorghum (Sorghum vulgare), 14 days after application, read-out: Visual Growth Reduction (%) 14 Days After Application, SORVU
[7] = STEME: common chickweed (Stellaria media), 14 days after application, read-out: Visual Growth Reduction (%) 14 Days After Application, STEME
[8] = TRZAS: wheat, spring (Triticum aestivum), 14 days after application, read-out: Visual Growth Reduction (%) 14 Days After Application, TRZAS
[9] = blackgrass (Alopecurus myosuroides), 14 Days After Application, read-out: Visual Growth Reduction (%) ALOMY
[10] = canada thistle (Cirsium arvense), 14 Days After Application, read-out: Visual Growth Reduction (%) CIRAR
[11] = crabgrass (Digitaria sanguinalis), 14 Days After Application, read-out: Visual Growth Reduction (%) DIGSA
[12] = lambsquarters (Chenopodium album), 14 Days After Application, read-out: Visual Growth Reduction (%) CHEAL
[13] = redroot pigweed (Amaranthus retroflexus), 14 Days After Application, read-out: Visual Growth Reduction (%) AMARE
[14] = wild oat (Avena fatua), 14 Days After Application, read-out: Visual Growth Reduction (%) AVEFA
[15] = yellow nutsedge (Cyperus esculentus), 14 Days After Application, read-out: Visual Growth Reduction (%) CYPES
[16] = ALOMY: blackgrass (Alopecurus myosuroides), 14 days after application, read-out: Visual Growth Reduction (%) 14 Days After Application, ALOMY
[17] = AMARE: redroot pigweed (Amaranthus retroflexus), 14 days after application, read-out: Visual Growth Reduction (%) 14 Days After Application, AMARE
[18] = AVEFA: wild oat (Avena fatua), 14 days after application, read-out: Visual Growth Reduction (%) 14 Days After Application, AVEFA
[19] = CHEAL: lambsquarters (Chenopodium album), 14 days after application, read-out: Visual Growth Reduction (%) 14 Days After Application, CHEAL
[20] = CIRAR: canada thistle (Cirsium arvense), 14 days after application, read-out: Visual Growth Reduction (%) 14 Days After Application, CIRAR
[21] = CYPES: yellow nutsedge (Cyperus esculentus), 14 days after application, read-out: Visual Growth Reduction (%) 14 Days After Application, CYPES
[22] = DIGSA: crabgrass (Digitaria sanguinalis), 14 days after application, read-out: Visual Growth Reduction (%) 14 Days After Application, DIGSA

Structure (SMILES)	pest or weed control at 140 g/ha [1]	pest or weed control at 140 g/ha [2]	pest or weed control at 140 g/ha [3]	pest or weed control at 140 g/ha [4]	pest or weed control at 140 g/ha [5]	pest or weed control at 140 g/ha [6]	pest or weed control at 140 g/ha [7]	pest or weed control at 140 g/ha [8]	pest or weed control at 140 g/ha [9]	pest or weed control at 140 g/ha [10]	pest or weed control at 140 g/ha [11]	pest or weed control at 140 g/ha [12]	pest or weed control at 140 g/ha [13]	pest or weed control at 140 g/ha [14]	pest or weed control at 140 g/ha [15]	other results
COC(=O)c1nc(-c2cc(C#N)c(C(F)(F)F)cc2Cl)ccc1Cl [F326, Methyl 3-chloro-6-(2-chloro-5-cyano-4-(trifluoromethyl)phenyl)picolinate]	75 to 84%	0 to 29%	0 to 29%	0 to 29%	30 to 44%	95 to 100%	0 to 29%	0 to 29%	0 to 29%	45 to 59%	75 to 84%	60 to 74%	0 to 29%	0 to 29%	0 to 29%	
COC(=O)c1nc(-c2cc(F)c3c(c2)OC(F)(F)O3)c(F)cc1Cl [F240, Methyl 3-chloro-5-fluoro-6-(2,2,7-trifluorobenzo[d][1,3]dioxol-5-yl)picolinate]	0 to 29%	95 to 100%	0 to 29%	0 to 29%	0 to 29%	75 to 84%	0 to 29%	0 to 29%	0 to 29%	0 to 29%	95 to 100%	60 to 74%	30 to 44%	0 to 29%	0 to 29%	
COC(=O)c1nc(-c2ccc(C3CC3)c(F)c2)ccc1Cl [F287, Methyl 3-chloro-6-(4-cyclopropyl-3-fluorophenyl) picolinate]	0 to 29%	60 to 74%	0 to 29%	0 to 29%	0 to 29%	0 to 29%	0 to 29%	0 to 29%	0 to 29%	0 to 29%	0 to 29%	0 to 29%	0 to 29%	0 to 29%	0 to 29%	
COC(=O)c1cc2c(c(-c3ccc(Cl)c(C(=O)OC)n3)c1)OC(F)(F)O2 [F245, Methyl 3-chloro-6-(2,2-difluoro-6-(methoxycarbonyl)benzo[d][1,3]dioxol-4-yl)picolinate]	0 to 29%	85 to 94%	0 to 29%	0 to 29%	0 to 29%	75 to 84%	0 to 29%	0 to 29%	0 to 29%	0 to 29%	0 to 29%	85 to 94%	0 to 29%	0 to 29%	45 to 59%	
O=C(O)c1nc(-c2cc(F)c(C(F)(F)F)cc2Cl)c(F)cc1Cl [F254, 3-Chloro-6-(2-chloro-5-fluoro-4-(trifluoromethyl)phenyl)-5-fluoropicolinic acid]	95 to 100%	95 to 100%	85 to 94%	75 to 84%	95 to 100%	95 to 100%	95 to 100%	95 to 100%	85 to 94%	95 to 100%	95 to 100%	95 to 100%	95 to 100%	95 to 100%	60 to 74%	
COC(=O)c1nc(-c2ccc(OS(C)(=O)=O)cc2Cl)ccc1Cl [F288, methyl 3-chloro-6-(2-chloro-4-((methylsulfonyl)oxy)phenyl)picolinate]	60 to 74%	95 to 100%	75 to 84%	0 to 29%	60 to 74%	85 to 94%	0 to 29%	30 to 44%	0 to 29%	95 to 100%	75 to 84%	85 to 94%	85 to 94%	0 to 29%	0 to 29%	
C=Cc1cc(C(F)(F)F)cc(Cl)c1-c1ccc(Cl)c(C(=O)OC)n1 [F216, methyl 3-chloro-6-(2-chloro-4-(trifluoromethyl)-6-vinylphenyl)picolinate]	0 to 29%	95 to 100%	30 to 44%	0 to 29%	60 to 74%	60 to 74%	0 to 29%	45 to 59%	0 to 29%	60 to 74%	0 to 29%	95 to 100%	30 to 44%	0 to 29%	0 to 29%	
O=C(O)c1nc(-c2ccc(SC(F)(F)F)cc2)c(Cl)cc1Cl [F89, 3,5-Dichloro-6-(4-((trifluoromethyl)thio)phenyl) picolinic acid]	0 to 29%	0 to 29%	0 to 29%	0 to 29%	0 to 29%	0 to 29%	0 to 29%	0 to 29%								pest or weed control at 140 g/ha [16]: 0 to 29%; pest or weed control at 140 g/ha [17]: 0 to 29%; pest or weed control at 140 g/ha [18]: 0 to 29%; pest or weed control at 140 g/ha [19]: 45 to 59%; pest or weed control at 140 g/ha [20]: 0 to 29%; pest or weed control at 140 g/ha [21]: 0 to 29%; pest or weed control at 140 g/ha [22]: 30 to 44%
O=C(OCc1ccncc1)c1nc(-c2ccc(C(F)(F)F)cc2Cl)ccc1Cl [F81, Pyridin-4-ylmethyl 3-chloro-6-(2-chloro-4-(trifluoromethyl)phenyl)picolinate]	95 to 100%	95 to 100%	95 to 100%	60 to 74%	95 to 100%	85 to 94%	0 to 29%	75 to 84%								pest or weed control at 140 g/ha [16]: 60 to 74%; pest or weed control at 140 g/ha [17]: 95 to 100%; pest or weed control at 140 g/ha [18]: 60 to 74%; pest or weed control at 140 g/ha [19]: 75 to 84%; pest or weed control at 140 g/ha [20]: 95 to 100%; pest or weed control at 140 g/ha [21]: 0 to 29%; pest or weed control at 140 g/ha [22]: 95 to 100%
COC(=O)c1nc(-c2ccc3c(c2OC)OC(F)(F)O3)ccc1Cl [F369, Methyl 3-chloro-6-(2,2-difluoro-4-methoxybenzo[d][1,3]dioxol-5-yl)picolinate]	45 to 59%	95 to 100%	30 to 44%	0 to 29%	60 to 74%	85 to 94%	0 to 29%	60 to 74%	30 to 44%	85 to 94%	85 to 94%	30 to 44%	60 to 74%	30 to 44%	0 to 29%	
